Data on one molecule can be found in PMC9122626 (2020).

Test [1] has as its system human telomeric G4 DNA, dAGGG(TTAGGG)3 (DNA, G4) AGGGTTAGGGTTAGGGTTAGGG
Put plainly: ITC. To be noted: 298.15 K; 64 μM DNA in cell, 700 μM peptide in syringe.

The subject of test [2] is ds26 (DNA, duplex) CAATCGGATCGAATTCGATCCGATTG
Put plainly: ITC. To be noted: Na+ 100 mM.

Test [3] deals with human telomeric G4 DNA, dAGGG(TTAGGG)3 (DNA, G4) AGGGTTAGGGTTAGGGTTAGGG
Put plainly: EMSA. The settings on record: 30 μM G4; room temperature; up to 120 μM peptide.

For test [4] the test system is unchanged. Nature of the test: CD melting (295 nm). To be noted: Na+ 100 mM; peptide concentration not given.
Test [5] shares this test system. Put plainly: thiazole orange displacement (fluorescence). The settings on record: 298 K; at ~8.4 μM peptide; thiazole orange displaced; 0.25 μM G4, 0.50 μM TO.

Each structure is given as a SMILES string.

Regarding `CC(C)[C@H](N)C(=O)N[C@@H](CCC(=O)N[C@@H](CCC(=O)O)C(=O)O)C(=O)N[C@@H](CCC(=O)O)C(=O)O` (racemic), the binding result in test [1] and in test [3] was “no” in each case. Further, in test [2], the Ka stood at 3360 M⁻¹. In addition, the Tm in test [4] was ~ -1 °C. Also, the “% TO displacement” value in test [5] is reported as ~ 6.5%.
